According to the supplement of paper PMC8882468:

Tests used:
Test in all cases: CTG-3D luminescence at 96 h relative to day-0 seeding control (ratio to day 0); higher = more growth / less cytotoxicity; PDxO 3D drug screen, 96 h, CTG-3D normalised to day-0 seeding control.
HCI-023 = tested on: HCI-023 (organoid from a triple-negative breast cancer xenograft)
HCI-008 = tested on: HCI-008 (organoid from a HER2-enriched breast cancer xenograft)
HCI-025 = tested on: HCI-025 (organoid from a breast cancer xenograft)
HCI-011.E2 = tested on: HCI-011.E2 (organoid from an ER-positive breast cancer xenograft)
HCI-010 = tested on: HCI-010 (organoid from a breast cancer xenograft)
HCI-027 = tested on: HCI-027 (organoid from a triple-negative breast cancer xenograft)

COc1cccc2c1C(=O)c1c(O)c3c(c(O)c1C2=O)C[C@@](O)(C(=O)CO)C[C@@H]3O[C@H]1C[C@H](N)[C@H](O)[C@H](C)O1 [doxorubicin]
CTG-3D luminescence at 96 h
Details	12.5 pM	0.00025 µM	0.005 µM	0.1 µM	1 µM	10 µM	100 µM	625 fM
HCI-008, days in culture: 228	1.33	1.91	1.48	1.51	0.743	0.19	0.0571	1.87
HCI-008, days in culture: 244	1.19	1.9	1.52	2.09	0.849	0.198	0.0903	2.37
HCI-010, days in culture: 52	2.23	2.37	2.52	1.93	0.497	0.271	0.0478	2.26
HCI-010, days in culture: 65	1.7	1.65	1.8	1.3	0.324	0.288	-0.000428	1.65
HCI-010, days in culture: 103	3.64	3.76	3.69	2.37	0.535	0.804	0.0524	3.28
HCI-011.E2, days in culture: 74	2.69	1.99	2.17	2.07	1.65	0.129	0.0309	2.14
HCI-023, days in culture: 111	1.54	1.21	1.32	1.1	0.426	0.00296	0.00755	1.45
HCI-023, days in culture: 128	1.92	1.73	1.62	1.33	0.321	0.00812	0.00367	2.08
HCI-025, days in culture: 172	2.56	1.67	2.22	1.81	0.663	-0.00377	-0.0121	2.18
HCI-025, days in culture: 209	2.17	2.18	2.33	1.37	0.406	0.0188	-0.00838	1.45
HCI-025, days in culture: 218	1.71	1.89	1.74	1.66	0.23	0.0154	-0.0116	1.66
HCI-027, days in culture: 176	2.14	1.93	1.87	0.162	0.0301	0.0198	0.0148	1.53
HCI-027, days in culture: 194	1.83	1.43	1.48	0.308	0.0306	0.0259	0.0261	1.7
HCI-027, days in culture: 201	1.99	2.28	1.79	0.325	0.0185	0.0267	0.0218	2.05

HCI-011.E2
Details	CTG-3D luminescence at 96 h
12.5 pM	1.59
0.00025 µM	1.65
0.005 µM	1.4
0.1 µM	1.98
1 µM	1.42
10 µM	0.122
100 µM	0.0255
625 fM	1.6

C[C@]12CC[C@@H]3c4ccc(O)cc4C[C@@H](CCCCCCCCC[S+]([O-])CCCC(F)(F)C(F)(F)F)[C@H]3[C@@H]1CC[C@@H]2O (stereo not given in full) [fulvestrant]
CTG-3D luminescence at 96 h
Details	12.5 pM	0.00025 µM	0.005 µM	0.1 µM	1 µM	10 µM	100 µM	625 fM
HCI-008, days in culture: 228	1.6	1.76	1.34	1.68	1.62	1.36	1.29	1.89
HCI-008, days in culture: 244	1.4	1.74	1.94	2.15	1.59	1.9	1.66	2.27
HCI-010, days in culture: 52	2.11	2.41	2.26	2.46	2.2	2.56	1.97	2.06
HCI-010, days in culture: 65	1.66	1.76	1.86	1.82	1.96	1.86	1.66	1.76
HCI-010, days in culture: 103	3.27	3.34	3.47	3.46	3.26	3.15	2.99	3.29
HCI-011.E2, days in culture: 74	2.77	2.62	1.87	2.1	2.1	2.2	2.02	2.9
HCI-023, days in culture: 111	1.5	1.45	1.4	1.27	0.963	1.24	0.911	1.61
HCI-023, days in culture: 128	1.83	1.54	1.6	2.08	1.33	1.56	1.11	1.75
HCI-025, days in culture: 172	3.02	1.74	3.7	1.97	1.97	1.21	2.24	2.87
HCI-025, days in culture: 209	1.87	1.6	2.26	1.66	1.8	1.4	1.23	1.44
HCI-025, days in culture: 218	1.47	1.8	1.97	1.54	1.5	1.93	1.21	1.28
HCI-027, days in culture: 176	2.05	1.67	2.89	2.3	2.57	1.77	2.18	2.36
HCI-027, days in culture: 194	1.74	1.82	1.53	1.78	2.32	2.05	2.15	1.71
HCI-027, days in culture: 201	2.63	2.77	2.87	2.64	2.56	2.01	1.85	2.4

HCI-011.E2
Details	CTG-3D luminescence at 96 h
12.5 pM	1.73
0.00025 µM	1.6
0.005 µM	1.24
0.1 µM	1.51
1 µM	1.37
10 µM	1.82
100 µM	1.73
625 fM	1.62

Nc1ccn([C@@H]2O[C@H](CO)[C@@H](O)C2(F)F)c(=O)n1 [gemcitabine]
CTG-3D luminescence at 96 h
Details	12.5 pM	0.00025 µM	0.005 µM	0.1 µM	1 µM	10 µM	100 µM	625 fM
HCI-008, days in culture: 228	1.403	1.8	1.3404	0.6483	0.596	0.717	0.362	1.48
HCI-008, days in culture: 244	1.25	1.74	1.74	1.26	0.69	0.873	0.465	2.18
HCI-010, days in culture: 52	2.22	2.17	0.657	0.455	0.327	0.234	0.123	2.32
HCI-010, days in culture: 65	1.64	1.79	0.508	0.23	0.163	0.0878	0.0546	1.68
HCI-010, days in culture: 103	3.39	3.81	0.867	0.503	0.479	0.241	0.123	3.42
HCI-011.E2, days in culture: 74	2.11	2.93	2.13	2.09	2.18	2.75	2.12	2.22
HCI-023, days in culture: 111	1.4	1.31	1.05	0.265	0.33	0.28	0.0585	1.43
HCI-023, days in culture: 128	1.62	1.78	1.15	0.416	0.26	0.399	0.0826	1.9
HCI-025, days in culture: 172	3.01	1.72	2.29	0.436	0.742	0.364	0.195	2.47
HCI-025, days in culture: 209	2.06	2.11	1.83	0.884	0.873	0.449	0.155	1.79
HCI-025, days in culture: 218	1.86	2.09	1.77	0.5	0.362	0.365	0.143	1.79
HCI-027, days in culture: 176	2.02	1.16	1.52	0.363	0.366	0.298	0.25	2.36
HCI-027, days in culture: 194	1.78	1.42	0.983	0.145	0.284	0.28	0.115	1.66
HCI-027, days in culture: 201	2.19	1.37	0.658	0.204	0.136	0.21	0.104	2.28

HCI-011.E2
Details	CTG-3D luminescence at 96 h
12.5 pM	1.72
0.00025 µM	1.78
0.005 µM	1.43
0.1 µM	1.87
1 µM	1.54
10 µM	1.78
100 µM	1.6
625 fM	1.9

C=CC(=O)N1CCC[C@@H](n2nc(-c3ccc(Oc4ccccc4)cc3)c3c(N)ncnc32)C1 [ibrutinib]
CTG-3D luminescence at 96 h
Details	12.5 pM	0.00025 µM	0.005 µM	0.1 µM	1 µM	10 µM	100 µM	625 fM
HCI-008, days in culture: 228	1.59	1.84	1.21	1.18	1.26	1	-0.0059	1.66
HCI-008, days in culture: 244	1.25	1.71	1.76	1.65	1.52	1.3	-0.0038	1.98
HCI-010, days in culture: 52	2.16	2.15	2.34	2.35	2.08	1.47	-0.00732	2.5
HCI-010, days in culture: 65	1.67	1.66	1.79	1.73	1.79	0.888	-0.00863	1.69
HCI-010, days in culture: 103	3.5	3.57	3.54	3.41	3.26	1.51	-0.0156	3.23
HCI-011.E2, days in culture: 74	2.44	2.67	1.96	2.48	2.83	2.44	0.00445	2.75
HCI-023, days in culture: 111	1.24	1.25	1.32	1.2	1.03	1.02	-0.00294	1.29
HCI-023, days in culture: 128	1.42	1.43	1.55	1.48	1.26	1.03	-0.00478	1.54
HCI-025, days in culture: 172	2.25	1.2	2.79	1.4	1.8	0.991	-0.0111	2.37
HCI-025, days in culture: 209	2.38	2.13	2.26	2.09	1.86	1.41	-0.0107	1.71
HCI-025, days in culture: 218	1.78	2.33	1.93	1.68	1.57	1.75	-0.00991	1.84
HCI-027, days in culture: 176	1.63	1.35	2.52	1.59	1.09	0.54	0.00595	1.73
HCI-027, days in culture: 194	1.68	1.52	1.52	1.6	1.98	1.69	0.00765	1.76
HCI-027, days in culture: 201	2.12	1.48	1.94	1.93	1.49	1.41	0.00768	2.11

HCI-011.E2
Details	CTG-3D luminescence at 96 h
12.5 pM	1.7
0.00025 µM	1.71
0.005 µM	1.45
0.1 µM	2
1 µM	2.1
10 µM	2.03
100 µM	0.00409
625 fM	1.84

CN(Cc1cnc2nc(N)nc(N)c2n1)c1ccc(C(=O)N[C@@H](CCC(=O)O)C(=O)O)cc1 [methotrexate]
CTG-3D luminescence at 96 h
Details	12.5 pM	0.00025 µM	0.005 µM	0.1 µM	1 µM	10 µM	100 µM	625 fM
HCI-008, days in culture: 228	1.82	1.9	1.53	1.98	1.97	1.82	1.2	2.01
HCI-008, days in culture: 244	1.4	1.83	1.93	2.13	1.59	1.93	1.66	2.31
HCI-010, days in culture: 52	2.12	2.41	2.51	2.48	2.58	2.52	2.52	2.58
HCI-010, days in culture: 65	1.6	1.77	1.79	1.86	1.86	1.72	1.46	1.8
HCI-010, days in culture: 103	3.42	3.7	4.03	2.39	2.36	2.1	1.84	3.19
HCI-011.E2, days in culture: 74	1.97	2.4	1.99	2.27	2.49	3.6	2.24	2.17
HCI-023, days in culture: 111	1.59	1.42	1.18	1.07	0.83	0.957	0.655	1.51
HCI-023, days in culture: 128	1.68	1.51	1.5	1.84	1.37	1.77	1.22	1.62
HCI-025, days in culture: 172	2.75	2.07	3.51	1.47	1.98	1.22	1.02	2.55
HCI-025, days in culture: 209	1.86	1.56	2.06	0.982	1.3	0.947	0.76	1.49
HCI-025, days in culture: 218	1.83	2	2	1.06	0.978	1.26	0.754	1.76
HCI-027, days in culture: 176	2.07	1.47	2.43	1.51	1.97	1.55	1.68	1.28
HCI-027, days in culture: 194	1.69	1.38	1.57	1.17	1.04	1.07	0.572	1.44
HCI-027, days in culture: 201	1.69	1.66	2.26	1.14	0.939	0.886	0.445	1.25

HCI-011.E2
Details	CTG-3D luminescence at 96 h
12.5 pM	1.46
0.00025 µM	1.77
0.005 µM	1.44
0.1 µM	1.83
1 µM	1.62
10 µM	2.08
100 µM	2.21
625 fM	1.59
